Laboratory results published in patent CN1221752A, “与阿卡加定相关的新型羊毛硫抗生素及其制备方法和用途” (priority 1997, dated 1999).

Tested on: 化脓葡萄球菌A561
Test: not given
Format: cell-based, 化脓葡萄球菌
Details: Boc-derivative table, 接种时间24h; strain A561

Substance | MIC [µg/mL]
N-Boc-Abu(0)-阿卡加定 [Boc-Abu-Acta] | > 40
Boc-Ile(0)-阿卡加定 [Boc-Ile-Acta] | > 40
二-Boc-Lys(0)-阿卡加定 [Boc-Lys-Acta] | ≤ 0.04

Same assay, conditions: incubation time 24h; strain A561

Substance | MIC [µg/mL]
Gln(0)-阿卡加定 [Gln-Acta] | 5
Ala(0)-阿卡加定 | ≤ 0.04
Phe-Ala(0)-阿卡加定 [Phe-Ala-Acta] | > 40
Lys(0)-阿卡加定 [Lys-Acta] | ≤ 0.04
Phe(0)-阿卡加定 [Phe-Acta] | > 40
Ile(0)-阿卡加定 [Ile-Acta] | ≤ 0.04

Tested on: not listed separately
Test: Solubility (physicochemical properties)
Details: methanol, water

Substance | Solubility
Ala(0)-阿卡加定 | 溶于甲醇和水

Tested on: 粪肠球茵 02D2DU18
Test: In vitro antibacterial activity, MIC, 18 h
Format: cell-based
Details: incubation time 18h; strain 02D2DU18

Substance | MIC [µg/mL]
Ala(0)-阿卡加定 | 5
Lys(0)-阿卡加定 [Lys-Acta] | 5
二-Boc-Lys(0)-阿卡加定 [Boc-Lys-Acta] | 10
Ile(0)-阿卡加定 [Ile-Acta] | 5

Tested on: 金黄色葡萄球菌SG511
Test: not given
Format: cell-based, 金黄色葡萄球菌
Details: Boc-derivative table, 接种时间24h; strain SG511

Substance | MIC [µg/mL]
N-Boc-Abu(0)-阿卡加定 [Boc-Abu-Acta] | 5
Boc-Ile(0)-阿卡加定 [Boc-Ile-Acta] | 20
二-Boc-Lys(0)-阿卡加定 [Boc-Lys-Acta] | 2.5

Same assay, conditions: Boc-derivative table, 接种时间24h; strain SG511 + 10% serum

Substance | MIC [µg/mL]
N-Boc-Abu(0)-阿卡加定 [Boc-Abu-Acta] | 10
Boc-Ile(0)-阿卡加定 [Boc-Ile-Acta] | 40
二-Boc-Lys(0)-阿卡加定 [Boc-Lys-Acta] | 10

Same assay, conditions: incubation time 24h; strain SG511

Substance | MIC [µg/mL]
Gln(0)-阿卡加定 [Gln-Acta] | 20
Ala(0)-阿卡加定 | 5
Phe-Ala(0)-阿卡加定 [Phe-Ala-Acta] | 5
Lys(0)-阿卡加定 [Lys-Acta] | 1.2
Phe(0)-阿卡加定 [Phe-Acta] | 0.6
Ile(0)-阿卡加定 [Ile-Acta] | 1.2

Same assay, conditions: incubation time 24h; strain SG511 + 10% serum

Substance | MIC [µg/mL]
Gln(0)-阿卡加定 [Gln-Acta] | 40
Ala(0)-阿卡加定 | 20
Phe-Ala(0)-阿卡加定 [Phe-Ala-Acta] | 10
Lys(0)-阿卡加定 [Lys-Acta] | 2.5
Phe(0)-阿卡加定 [Phe-Acta] | 5
Ile(0)-阿卡加定 [Ile-Acta] | 2.5

Tested on: 粪肠球菌 02D2HM9
Test: In vitro antibacterial activity, MIC, 18 h
Format: cell-based
Details: incubation time 18h; strain 02D2HM9

Substance | MIC [µg/mL]
Ala(0)-阿卡加定 | > 40
Lys(0)-阿卡加定 [Lys-Acta] | > 40
二-Boc-Lys(0)-阿卡加定 [Boc-Lys-Acta] | > 40
Ile(0)-阿卡加定 [Ile-Acta] | 40

Tested on: S.mitis 02mitGR16
Test: In vitro antibacterial activity, MIC, 18 h
Format: cell-based
Details: incubation time 18h; strain 02mitGR16

Substance | MIC [µg/mL]
Ala(0)-阿卡加定 | 20
Lys(0)-阿卡加定 [Lys-Acta] | 10
二-Boc-Lys(0)-阿卡加定 [Boc-Lys-Acta] | 5
Ile(0)-阿卡加定 [Ile-Acta] | 10

Tested on: 粪肠球菌 02D2HT10
Test: In vitro antibacterial activity, MIC, 18 h
Format: cell-based
Details: incubation time 18h; strain 02D2HT10

Substance | MIC [µg/mL]
Ala(0)-阿卡加定 | > 40
Lys(0)-阿卡加定 [Lys-Acta] | > 40
二-Boc-Lys(0)-阿卡加定 [Boc-Lys-Acta] | > 40
Ile(0)-阿卡加定 [Ile-Acta] | > 40

Tested on: 化脓葡萄球菌 02A1CU1
Test: In vitro antibacterial activity, MIC, 18 h
Format: cell-based
Details: incubation time 18h; strain 02A1CU1

Substance | MIC [µg/mL]
Ala(0)-阿卡加定 | ≤ 0.04
Lys(0)-阿卡加定 [Lys-Acta] | ≤ 0.04
二-Boc-Lys(0)-阿卡加定 [Boc-Lys-Acta] | ≤ 0.04
Ile(0)-阿卡加定 [Ile-Acta] | ≤ 0.04

Tested on: 011HT18
Test: In vitro antibacterial activity, MIC, 18 h
Format: cell-based
Details: incubation time 18h; strain 011HT18

Substance | MIC [µg/mL]
Ala(0)-阿卡加定 | > 40
Lys(0)-阿卡加定 [Lys-Acta] | > 40
二-Boc-Lys(0)-阿卡加定 [Boc-Lys-Acta] | > 40
Ile(0)-阿卡加定 [Ile-Acta] | > 40

Tested on: not listed separately
Test: Tolerability and toxicity
Details: at the active concentration and the concentrations mentioned above

Substance | Cytotoxicity or other toxicity | Tolerability
Ala(0)-阿卡加定 | 没有发现其细胞毒性或其它的毒性 | 耐受性很好

Tested on: Staph.coag.negative012HT5
Test: In vitro antibacterial activity, MIC, 18 h
Format: cell-based, Staph.coag.negative
Details: incubation time 18h; strain 012HT5

Substance | MIC [µg/mL]
Ala(0)-阿卡加定 | > 40
Lys(0)-阿卡加定 [Lys-Acta] | > 40
二-Boc-Lys(0)-阿卡加定 [Boc-Lys-Acta] | > 40
Ile(0)-阿卡加定 [Ile-Acta] | > 40

Tested on: 金黄色葡萄球菌 O11HT1
Test: In vitro antibacterial activity, MIC, 18 h
Format: cell-based
Details: incubation time 18h; strain O11HT1

Substance | MIC [µg/mL]
Ala(0)-阿卡加定 | 1.1
Lys(0)-阿卡加定 [Lys-Acta] | 0.6
二-Boc-Lys(0)-阿卡加定 [Boc-Lys-Acta] | 10
Ile(0)-阿卡加定 [Ile-Acta] | 1.2

Tested on: 011HT3
Test: In vitro antibacterial activity, MIC, 18 h
Format: cell-based
Details: incubation time 18h; strain 011HT3

Substance | MIC [µg/mL]
Ala(0)-阿卡加定 | 20
Lys(0)-阿卡加定 [Lys-Acta] | 10
二-Boc-Lys(0)-阿卡加定 [Boc-Lys-Acta] | 10
Ile(0)-阿卡加定 [Ile-Acta] | 2.5

Same assay, conditions: incubation time 18h; strain 011HT3 + 50% serum (first such line)

Substance | MIC [µg/mL]
Ala(0)-阿卡加定 | 20
Lys(0)-阿卡加定 [Lys-Acta] | 10
二-Boc-Lys(0)-阿卡加定 [Boc-Lys-Acta] | 20
Ile(0)-阿卡加定 [Ile-Acta] | 2.5

Same assay, conditions: incubation time 18h; strain 011HT3 + 50% serum (second such line)

Substance | MIC [µg/mL]
Ala(0)-阿卡加定 | 40
Lys(0)-阿卡加定 [Lys-Acta] | 10
二-Boc-Lys(0)-阿卡加定 [Boc-Lys-Acta] | 40
Ile(0)-阿卡加定 [Ile-Acta] | 5

Tested on: 化脓葡萄球菌 02A1F16
Test: In vitro antibacterial activity, MIC, 18 h
Format: cell-based
Details: incubation time 18h; strain 02A1F16

Substance | MIC [µg/mL]
Ala(0)-阿卡加定 | ≤ 0.04
Lys(0)-阿卡加定 [Lys-Acta] | ≤ 0.04
二-Boc-Lys(0)-阿卡加定 [Boc-Lys-Acta] | ≤ 0.04
Ile(0)-阿卡加定 [Ile-Acta] | ≤ 0.04

Tested on: 粪肠球菌 02D2uC5
Test: In vitro antibacterial activity, MIC, 18 h
Format: cell-based
Details: incubation time 18h; strain 02D2uC5

Substance | MIC [µg/mL]
Ala(0)-阿卡加定 | 20
Lys(0)-阿卡加定 [Lys-Acta] | 40
二-Boc-Lys(0)-阿卡加定 [Boc-Lys-Acta] | 40
Ile(0)-阿卡加定 [Ile-Acta] | 40

Tested on: 化脓葡萄球菌 02A1SJ1
Test: In vitro antibacterial activity, MIC, 18 h
Format: cell-based
Details: incubation time 18h; strain 02A1SJ1

Substance | MIC [µg/mL]
Ala(0)-阿卡加定 | ≤ 0.04
Lys(0)-阿卡加定 [Lys-Acta] | ≤ 0.04
二-Boc-Lys(0)-阿卡加定 [Boc-Lys-Acta] | 0.08
Ile(0)-阿卡加定 [Ile-Acta] | ≤ 0.04

Tested on: 金黄色葡萄球菌 011DU5
Test: In vitro antibacterial activity, MIC, 18 h
Format: cell-based
Details: incubation time 18h; strain 011DU5

Substance | MIC [µg/mL]
Ala(0)-阿卡加定 | 40
Lys(0)-阿卡加定 [Lys-Acta] | 10
二-Boc-Lys(0)-阿卡加定 [Boc-Lys-Acta] | 40
Ile(0)-阿卡加定 [Ile-Acta] | 10

Tested on: 金黄色葡萄球菌Exp54146
Test: not given
Format: cell-based, 金黄色葡萄球菌
Details: Boc-derivative table, 接种时间24h; strain Exp54146

Substance | MIC [µg/mL]
N-Boc-Abu(0)-阿卡加定 [Boc-Abu-Acta] | > 40
Boc-Ile(0)-阿卡加定 [Boc-Ile-Acta] | > 40
二-Boc-Lys(0)-阿卡加定 [Boc-Lys-Acta] | 10

Same assay, conditions: incubation time 24h; strain Exp54146

Substance | MIC [µg/mL]
Gln(0)-阿卡加定 [Gln-Acta] | > 40
Ala(0)-阿卡加定 | 40
Phe-Ala(0)-阿卡加定 [Phe-Ala-Acta] | 20
Lys(0)-阿卡加定 [Lys-Acta] | 10
Phe(0)-阿卡加定 [Phe-Acta] | 5
Ile(0)-阿卡加定 [Ile-Acta] | 2.5

Tested on: 大肠杆菌
Test: not given
Format: cell-based
Details: Boc-derivative table, 接种时间24h

Substance | MIC [µg/mL]
N-Boc-Abu(0)-阿卡加定 [Boc-Abu-Acta] | > 40
Boc-Ile(0)-阿卡加定 [Boc-Ile-Acta] | > 40
二-Boc-Lys(0)-阿卡加定 [Boc-Lys-Acta] | > 40

Same assay, conditions: incubation time 24h

Substance | MIC [µg/mL]
Gln(0)-阿卡加定 [Gln-Acta] | > 40
Ala(0)-阿卡加定 | > 40
Phe-Ala(0)-阿卡加定 [Phe-Ala-Acta] | > 40
Lys(0)-阿卡加定 [Lys-Acta] | > 40
Phe(0)-阿卡加定 [Phe-Acta] | > 40
Ile(0)-阿卡加定 [Ile-Acta] | > 40

Tested on: 屎肠球菌M78L
Test: not given
Format: cell-based, 屎肠球菌
Details: Boc-derivative table, 接种时间24h; strain M78L

Substance | MIC [µg/mL]
N-Boc-Abu(0)-阿卡加定 [Boc-Abu-Acta] | > 40
Boc-Ile(0)-阿卡加定 [Boc-Ile-Acta] | > 40
二-Boc-Lys(0)-阿卡加定 [Boc-Lys-Acta] | 10

Same assay, conditions: incubation time 24h; strain M78L

Substance | MIC [µg/mL]
Gln(0)-阿卡加定 [Gln-Acta] | 10
Ala(0)-阿卡加定 | 5
Phe-Ala(0)-阿卡加定 [Phe-Ala-Acta] | 10
Lys(0)-阿卡加定 [Lys-Acta] | 5
Phe(0)-阿卡加定 [Phe-Acta] | > 40
Ile(0)-阿卡加定 [Ile-Acta] | 5

Tested on: 表皮葡萄球菌 012GO42
Test: In vitro antibacterial activity, MIC, 18 h
Format: cell-based
Details: incubation time 18h; strain 012GO42

Substance | MIC [µg/mL]
Ala(0)-阿卡加定 | > 40
Lys(0)-阿卡加定 [Lys-Acta] | > 40
二-Boc-Lys(0)-阿卡加定 [Boc-Lys-Acta] | > 40
Ile(0)-阿卡加定 [Ile-Acta] | > 40

Tested on: 金黄色葡萄球菌 0121O64
Test: In vitro antibacterial activity, MIC, 18 h
Format: cell-based
Details: incubation time 18h; strain 0121O64

Substance | MIC [µg/mL]
Ala(0)-阿卡加定 | > 40
Lys(0)-阿卡加定 [Lys-Acta] | > 40
二-Boc-Lys(0)-阿卡加定 [Boc-Lys-Acta] | > 40
Ile(0)-阿卡加定 [Ile-Acta] | > 40

Tested on: Streptogr G02G0CB2
Test: In vitro antibacterial activity, MIC, 18 h
Format: cell-based, Streptogr G
Details: incubation time 18h; strain 02G0CB2

Substance | MIC [µg/mL]
Ala(0)-阿卡加定 | 20
Lys(0)-阿卡加定 [Lys-Acta] | 5
二-Boc-Lys(0)-阿卡加定 [Boc-Lys-Acta] | 2.5
Ile(0)-阿卡加定 [Ile-Acta] | 10

Tested on: S.milleri 02milGR12
Test: In vitro antibacterial activity, MIC, 18 h
Format: cell-based
Details: incubation time 18h; strain 02milGR12

Substance | MIC [µg/mL]
Ala(0)-阿卡加定 | 40
Lys(0)-阿卡加定 [Lys-Acta] | 40
二-Boc-Lys(0)-阿卡加定 [Boc-Lys-Acta] | 5
Ile(0)-阿卡加定 [Ile-Acta] | > 40

Tested on: 金黄色葡萄球菌 011CB20
Test: In vitro antibacterial activity, MIC, 18 h
Format: cell-based
Details: incubation time 18h; strain 011CB20

Substance | MIC [µg/mL]
Ala(0)-阿卡加定 | > 40
Lys(0)-阿卡加定 [Lys-Acta] | > 40
Ile(0)-阿卡加定 [Ile-Acta] | 40

Tested on: S.pnenmoniae 030BI2
Test: In vitro antibacterial activity, MIC, 18 h
Format: cell-based
Details: incubation time 18h; strain 030BI2

Substance | MIC [µg/mL]
Ala(0)-阿卡加定 | 2.5
Lys(0)-阿卡加定 [Lys-Acta] | 2.5
二-Boc-Lys(0)-阿卡加定 [Boc-Lys-Acta] | 1.2
Ile(0)-阿卡加定 [Ile-Acta] | 1.2

Tested on: 表皮葡萄球菌 012GO20
Test: In vitro antibacterial activity, MIC, 18 h
Format: cell-based
Details: incubation time 18h; strain 012GO20

Substance | MIC [µg/mL]
Ala(0)-阿卡加定 | > 40
Lys(0)-阿卡加定 [Lys-Acta] | > 40
二-Boc-Lys(0)-阿卡加定 [Boc-Lys-Acta] | > 40
Ile(0)-阿卡加定 [Ile-Acta] | > 40

Tested on: not listed separately
Test: Stability in solution (physicochemical properties)
Details: neutral / weakly alkaline vs strongly acidic / strongly alkaline media

Substance | Stability in solution
Ala(0)-阿卡加定 | 于中性和弱碱性介质中稳定，但于强酸性和强碱性溶液中不稳定
